The values that follow come from patent US9469616B2, “Cyclic compounds and methods of making and using the same” (Cellceutix Corporation, priority 2011, dated 2016).

The subject of data set [1] is Escherichia coli. The data set can be described thus: Antimicrobial activity (MIC) of aryl compounds (Table 2). The data set is classed as cell-based. The following applies: for MIC: Escherichia coli, Table 2. The text has this:
(§1) A new series of aryl compounds was designed to evaluate the effect of charge and aromatic group hydrophobicity on the biological activity while still maintaining an amphiphilic topology. Four and six cationic charges were investigated, and three different central rings were used to tune the overall hydrophobicity: benzene, naphthalene, and phenylbenzene. The hydrophobicities of the aryl compounds were quantified using reversed-phase HPLC retention times (Rt). The antimicrobial activities (expressed as minimum inhibitory concentration (MIC)) of these compounds were tested against four pathogens, including both Gram-negative and Gram-positive bacteria, and their hemolysis (evaluated in terms of HC50, the lowest concentration that causes 50% hemolysis of red blood cells (RBCs)) was tested against human RBCs.

For data set [2], the system named is Staphylococcus aureus. The description is as above. The data set is classed as cell-based. The following applies: for MIC: Staphylococcus aureus, Table 2, read-out: MIC S. aureus.
Excerpt: as §1

In data set [3] the test system is P. aeruginosa (10145). The data set can be described thus: MIC assay (Table 1). It counts as cell-based. To be noted: Pseudomonas aeruginosa, isolate 10145.
Data set [4] relates to NIH/3T3 cells. The data set can be described thus: Cytotoxicity colorimetric assay. To be noted: Mus musculus, NIH3T3, 1 h, one hour incubation in serum-free media. It counts as cell-based. On the procedure: Cytotoxicity of the compounds are evaluated in a colorimetric assay using a transformed human liver cell line (HepG2, HB-8065) and an embryonic mouse cell line (NIH/3T3 cells, CRL-1658). This assay measures the bioreduction of a novel tetrazolium compound to a soluble formazan product by viable cells. HepG2 cells are seeded in 96 well plates at 2×10^4 cells/well in MEM medium with 10% fetal bovine serum (FBS) 24 hours prior to use. NIH/3T3 cells are seeded in 96 well plates at 2×10^4 cells/well in DMEM medium with 10% bovine calf serum (BCS) 24 hours prior to use. Cell monolayers are rinsed in serum-free media and incubated for one hour with a Compound in serum-free media. After incubation, the media is replaced with serum supplemented media and live cells are measured using the Cell Titer 96 Aqueous […] Assay kit (Promega, Madison, Wis.). EC50 values are determined using a four parameter logistic equation: Y=Bottom+(Top−Bottom)/(1+10^((Log EC50−X)*HillSlope)). […] Data is expressed as EC50 in μg/ml. Cytotoxicity is evaluated in a colorimetric assay using a transformed human liver cell line (HepG2, HB-8065) and an embryonic mouse cell line (NIH/3T3 cells, CRL-1658). This assay measures the bioreduction of a novel tetrazolium compound to a soluble formazan product by viable cells. HepG2 cells are seeded in 96 well plates at 3×10^4 cells/well in MEM medium with 10% fetal bovine serum (FBS) 24 hours prior to use. NIH/3T3 cells are seeded in 96 well plates at 2×10^4 cells/well in DMEM medium with 10% bovine calf serum (BCS) 24 hours prior to use. Cell monolayers are rinsed in serum-free media and incubated for one hour with test agent in serum-free media. After incubation, the media is replaced with serum supplemented media and live cells are measured using the Cell Titer 96 Aqueous […] Assay kit (Promega, Madison, Wis.). EC50 values are determined using a four parameter logistic equation: Y=Bottom+(Top−Bottom)/(1+10^((Log EC50−X)*HillSlope)).

The subject of data set [5] is HepG2. In words: Cytotoxicity colorimetric assay. The following applies: Homo sapiens, HepG2, 1 h, one hour incubation in serum-free media. The data set is classed as cell-based. On the procedure: Cytotoxicity of the compounds are evaluated in a colorimetric assay using a transformed human liver cell line (HepG2, HB-8065) and an embryonic mouse cell line (NIH/3T3 cells, CRL-1658). This assay measures the bioreduction of a novel tetrazolium compound to a soluble formazan product by viable cells. HepG2 cells are seeded in 96 well plates at 2×10^4 cells/well in MEM medium with 10% fetal bovine serum (FBS) 24 hours prior to use. NIH/3T3 cells are seeded in 96 well plates at 2×10^4 cells/well in DMEM medium with 10% bovine calf serum (BCS) 24 hours prior to use. Cell monolayers are rinsed in serum-free media and incubated for one hour with a Compound in serum-free media. After incubation, the media is replaced with serum supplemented media and live cells are measured using the Cell Titer 96 Aqueous […] Assay kit (Promega, Madison, Wis.). EC50 values are determined using a four parameter logistic equation: Y=Bottom+(Top−Bottom)/(1+10^((Log EC50−X)*HillSlope)). Actual results from a representative cytotoxicity assay are shown below in Table 3. Data is expressed as EC50 in μg/ml. Cytotoxicity is evaluated in a colorimetric assay using a transformed human liver cell line (HepG2, HB-8065) and an embryonic mouse cell line (NIH/3T3 cells, CRL-1658). This assay measures the bioreduction of a novel tetrazolium compound to a soluble formazan product by viable cells. HepG2 cells are seeded in 96 well plates at 3×10^4 cells/well in MEM medium with 10% fetal bovine serum (FBS) 24 hours prior to use. NIH/3T3 cells are seeded in 96 well plates at 2×10^4 cells/well in DMEM medium with 10% bovine calf serum (BCS) 24 hours prior to use. Cell monolayers are rinsed in serum-free media and incubated for one hour with test agent in serum-free media. After incubation, the media is replaced with serum supplemented media and live cells are measured using the Cell Titer 96 Aqueous […] Assay kit (Promega, Madison, Wis.). EC50 values are determined using a four parameter logistic equation: Y=Bottom+(Top−Bottom)/(1+10^((Log EC50−X)*HillSlope)).

Data set [6] deals with E. coli (25922). In words: MIC assay (Table 1). It counts as cell-based. The following applies: Escherichia coli, isolate 25922.
Data set [7] concerns E. faecalis (29212). The data set can be described thus: MIC assay (Table 1). It counts as cell-based. To be noted: Enterococcus faecalis, isolate 29212. On the procedure: (§2) The compounds are screened for antimicrobial activity against a number of clinically relevant pathogens. Minimum Inhibitory Concentrations (MIC) of each of the compounds are determined using standard procedures for clinical ocular isolates of Ciprofloxacin Susceptible (CS) S. aureus (CSSA), Ciprofloxacin Resistant (CR) S. aureus (CRSA), CS S. epidermidis (CSSE), CR S. epidermidis (CRSE), St. pneumoniae (SP), St. viridans group (SV), Moraxella Species (MS) (including Moraxella catarrhalis), H. influenzae (HI), P. aeruginosa (PA), Serratia marcescens (SM), S. aureus fluoroquinolone-susceptible, S. aureus fluoroquinolone-resistant, S. epidermidis (Coagulase-negative Staphylococcus) fluoroquinolone-susceptible, S. epidermidis (Coagulase-negative Staphylococcus) fluoroquinolone-resistant, and Serratia marcescens.
(§3) On the day of testing, a 640 μg/m (1280 μg/m for Serratia marcescens and Pseudomonas aeruginosa) concentration is prepared from a 1% stock solution in 0.01% acetic acid, 0.2% BSA in polypropylene tubes.
(§4) Ten μl of diluted 10× test agents is added to each well of one row of the 96 well polypropylene plates from column 2 to column 12 (column 1 is a control for bacteria alone, with no peptide). […] The same peptide is in each of the 8 rows. One plate contains dilutions of one test agent and 8 bacterial isolates.
(§5) Ninety μl of the bacterial suspensions is dispensed in each well from column 1 to column 12. Each bacterial isolate is placed in one row of a 96 well polypropylene plate containing the test agents. The plates are placed on shaker at 15 minutes at room temperature, and then incubated at 37° C. overnight. MICs are determined visually as the lowest concentration of drug that inhibits visible bacterial growth.
(§6) Data is expressed as MIC50 in μg/ml. The bacterial isolates were as follows: E. coli (25922); S. aureus (27660); E. faecalis (29212); P. aeruginosa (10145); and K. pneumoniae (13883).

Data set [8] relates to K. pneumoniae (13883). In words: MIC assay (Table 1). The data set is classed as cell-based. The following applies: Klebsiella pneumoniae, isolate 13883, read-out: MIC50 K. Pnuemnoiae. Here is the method: as §2, §3, §4, §5, §6
In data set [9] the test system is S. aureus (27660). The data set can be described thus: MIC assay (Table 1). It counts as cell-based. To be noted: Staphylococcus aureus, isolate 27660.
The test system of data set [10] is human RBCs. The data set is classed as cell-based. The following applies: 1 h, pH 7.4.
Excerpt: as §1
Cytotoxicity of the compounds is also evaluated in a hemolysis assay using human erythrocytes. Pooled whole human blood is centrifuged to separate the red blood cells (RBC). The isolated RBCs are rinsed and diluted in Tris-buffered saline (TBS buffer, pH 7.4) to obtain a 0.22% RBC stock suspension. 5 μL of a Compound stock solution is added to 45 μL of RBC suspension and incubated with shaking for 1 hour at 37° C. At the conclusion of the incubation time, samples are centrifuged and 30 μL of the supernatant is added to 100 μL of water. OD414 measurements are read for hemoglobin concentration. The bee venom peptide melittin is used as a positive control. EC50 values are determined as described above.
Cytotoxicity is also evaluated in a hemolysis assay using isolated human erythrocytes. Pooled whole human blood is centrifuged to separate the red blood cells (RBC). The isolated RBCs are rinsed and diluted in Tris-buffered saline (TBS buffer, pH 7.4) to obtain a 0.22% RBC stock suspension. […] OD405 measurements are read for hemoglobin concentration. […] EC50 values are determined using a four parameter logistic equation: Y=Bottom+(Top−Bottom)/(1+10^((Log EC50−X)*HillSlope)).

In data set [11] the test system is RAW 264.7 cells. The data set can be described thus: Cytokine production in RAW 264.7 cells (ELISA). It counts as cell-based, murine. To be noted: 5.0 μg/mL preincubation 1 hour, LPS 100 ng/mL 18 hours; FIG. 1B. Background: ELISA stands for enzyme-linked immunosorbent assay.
In data set [12] the test system is Escherichia coli. To be noted: Data from Thaker, et al., J. Med. Chem., 2011, 54, 2241; cited from earlier work.
The subject of data set [13] is Staphylococcus aureus. To be noted: Data from Thaker, et al., J. Med. Chem., 2011, 54, 2241; cited from earlier work.

In brackets after ≈: the same amount, converted by molar mass. Several values for one entry are separate records, joined by “and”; a condition that tells them apart may be missing. Identical values can stand only once. Some results are limits rather than exact numbers.

On to `NCCCOc1cc(OCCCN)cc(-c2cccc(-c3cc(OCCCN)cc(OCCCN)c3)c2)c1` [Compound 111], for which the MIC in [1] amounted to 50 µg/mL (≈ 95.7 µM); in [2] it was 12.5 µg/mL (≈ 23.9 µM). In addition, the “Selectivity (HC50/MIC) E. coli” value in data set [1] is greater than 20. Further, in data set [2], the “Selectivity (HC50/MIC) S. aureus” value was greater than 80. The MIC50 in [3] was greater than 50 µg/mL; in [6] it was 50 µg/mL (≈ 95.7 µM); in data set [7] it was 50 µg/mL (≈ 95.7 µM); in data set [8], greater than 50 µg/mL; in data set [9], 12.5 µg/mL (≈ 23.9 µM). In addition, the EC50 in data set [4] is 814 µg/mL (≈ 1560 µM); in data set [5], greater than 1020 µg/mL.

Consider `NCCCOc1cc(-c2cc(-c3ccccc3)cc(-c3cc(OCCCN)c(OCCCN)c(OCCCN)c3)c2)cc(OCCCN)c1OCCCN` [Compound 115], for which the minimal inhibitory concentration (MIC) in data set [1] and in data set [2] was 6.25 µg/mL (≈ 8.39 µM) throughout. In data set [1], the “Selectivity (HC50/MIC) E. coli” value was greater than 160. For the same molecule, the “Selectivity (HC50/MIC) S. aureus” value in data set [2] was greater than 160. For the same molecule, the MIC50 was 25 µg/mL (≈ 33.6 µM) in data set [3]; 6.25 µg/mL (≈ 8.39 µM) in data set [6]; greater than 50 µg/mL in data set [7]; 12.5 µg/mL (≈ 16.8 µM) in [8]; 12.5 µg/mL (≈ 16.8 µM) in [9]. In data set [4], this molecule gave a half-maximal effective concentration (EC50) of 110 µg/mL (≈ 147 µM). Moreover, in [10], the concentration for 50% haemolysis (HC50) was greater than 1000 µg/mL. The “LPS-induced TNF production” value in [11] is “did not cause any additional increase in TNF production”.

In the case of `NCCCOc1cc(OCCCN)cc(-c2ccc3ccc(-c4cc(OCCCN)cc(OCCCN)c4)cc3c2)c1` [Compound 119], the MIC in data set [1] amounted to 25 µg/mL (≈ 43.6 µM); in data set [2], 12.5 µg/mL (≈ 21.8 µM). Besides, in [1], the “Selectivity (HC50/MIC) E. coli” value is 7.8. Besides, in data set [2], the “Selectivity (HC50/MIC) S. aureus” value is 15.6. The MIC50 in [3] came out at 25 µg/mL (≈ 43.6 µM); in [6], 25 µg/mL (≈ 43.6 µM); in data set [7] it was 6.25 µg/mL (≈ 10.9 µM); in [8], 50 µg/mL (≈ 87.3 µM); in data set [9], 12.5 µg/mL (≈ 21.8 µM). Further, the HC50 in data set [10] turned out to be 195 µg/mL. In addition, the “LPS-induced TNF production” value in [11] is on record as “did not cause any additional increase in TNF production”.

For `NCCCOc1cc(C#Cc2ccc3ccc(C#Cc4cc(OCCCN)cc(OCCCN)c4)cc3c2)cc(OCCCN)c1` [Compound 120], the MIC50 was found to be 6.25 µg/mL (≈ 10.1 µM) in data set [3]; 3.13 µg/mL (≈ 5.04 µM) in [6]; 1.56 µg/mL (≈ 2.51 µM) in data set [7]; 6.25 µg/mL (≈ 10.1 µM) in data set [8]; 3.13 µg/mL (≈ 5.04 µM) in [9]. The EC50 turned out to be 15.2 µg/mL (≈ 24.5 µM) in data set [4] and 36.4 µg/mL (≈ 58.6 µM) in data set [5].

Regarding MSI-78, in data set [12], the “MIC E. coli” value was 16 µg/mL and 16 to 32 µg/mL. In addition, the “MIC S. aureus” value in data set [13] was 16 µg/mL and 8 to 16 µg/mL.

The MIC is the lowest concentration that inhibits growth of the organism. In general, MIC50 refers to the lowest concentration that inhibits either 50% of growth or 50% of the strains tested, depending on the study. In general, EC50 refers to the concentration giving half of the maximal effect. The low end stands for a more potent agent, the high end for a less potent agent. The HC50 is the concentration that lyses half of the red blood cells. A high value points to weaker haemolysis.
